Results published in paper PMC8023571, “Multiple Applications of a Novel Biarsenical Imaging Probe in Fluorescence and PET Imaging of Melanoma” (Bioconjugate Chemistry, 2021).

Columns and labels:
[1] = test system: Cys-Cys-Pro-Gly-Cys-Cys (CCPGCC) sequence; details: four As-S bonds with CCPGCC; cited from earlier work
Source text: In 1998, Griffin et al. described a system for fluorescent imaging using a biarsenical fluorescein analogue system now widely known as FlAsH.[6] This system relied on a reversible soft Lewis acid–base reaction between As(III) and S(-II) of cysteine. […] Since this sequence is uncommon in natural proteins, it requires installation via genetic alteration of the organism where the protein is expressed; in small peptides, it can be introduced during chemical synthesis. However, as ...

[2] = PET measurement of organ distribution in a nonhuman primate; format: in vivo, cynomolgus monkey; details: i.v.; NHP
Method: Second, high background affinity to any organ would severely hamper protein imaging in that organ. In order to test if 1 fulfilled these prerequisites, a […] dynamic PET measurement was performed after an intravenous injection of [^11C]CH3-1, with the upper body of a nonhuman primate subject (NHP) in the field of view. […] The high radioactivity in the liver and the low uptake in the brain likely prohibits the use of 1 for pretargeting in these organs. […] Blood samples were taken at multiple time points during the NHP PET measurements for the purpose of analyzing radiolabeled metabolites in plasma.
Figure 3 (a) Summation PET image of NHP showing the distribution of [^11C]CH3-1 from 3 to 60 min after intravenous injection. (b) Time–activity curves showing organ distribution following intravenous injection of [^11C]CH3-1.
Image- and Statistical Analysis
The acquired list mode data was reconstructed into […] (93 min scan = 4x10 s, 4x20 s, 4x60 s, 7x180 s, 11x360 s). The image reconstruction was made with a fully 3-dimensional maximum-likelihood expectation maximization algorithm (MLEM) with 20 iterations, without scatter and attenuation correction. […] The regional uptake values were expressed as standard uptake value (SUV), which normalizes for injected radioactivity and body weight. […]

For `O=C(O)c1ccccc1-c1c2ccc(=O)c([As]3SCCS3)c-2oc2c([As]3SCCS3)c(O)ccc12` [FlAsH], the binding constant [1] is given as “high binding constant”.

In the case of `O=c1cc2oc3c([As]4SCCS4)c(O)ccc3c(-c3ccc(F)cc3)c-2cc1[As]1SCCS1` [compound 1], the “background radioactivity in lungs and heart” value [2] is reported as “intermediate background radioactivity”.
